Data reported in ChEMBL document CHEMBL1154382, “Preliminary SAR analysis of novel antiproliferative N(6),5'-bis-ureidoadenosine derivatives” (2009).

Experiments:
Type in all cases: functional
[1] = tested on: CCRF-CEM; assay: Antiproliferative activity against human CCRF-CEM cells
[2] = tested on: HL-60(TB); assay: Antiproliferative activity against human HL-60(TB) cells
[3] = tested on: K562; assay: Antiproliferative activity against human K562 cells
[4] = tested on: MOLT-4; assay: Antiproliferative activity against human MOLT4 cells
[5] = Antiproliferative activity against human […] cells
[6] = tested on: A549; assay: Antiproliferative activity against human A549 cells
[7] = tested on: EKVX; assay: Antiproliferative activity against human EKVX cells
[8] = tested on: HOP-62; assay: Antiproliferative activity against human HOP62 cells
[9] = tested on: HOP-92; assay: Antiproliferative activity against human HOP92 cells
[10] = tested on: NCI-H226; assay: Antiproliferative activity against human NCI-H226 cells
[11] = tested on: NCI-H23; assay: Antiproliferative activity against human NCI-H23 cells
[12] = tested on: NCI-H322M; assay: Antiproliferative activity against human NCI-H322M cells
[13] = tested on: NCI-H460; assay: Antiproliferative activity against human NCI-H460 cells
[14] = tested on: NCI-H522; assay: Antiproliferative activity against human NCI-H522 cells
[15] = tested on: COLO 205; assay: Antiproliferative activity against human COLO205 cells
[16] = tested on: HCC 2998; assay: Antiproliferative activity against human HCC2998 cells
[17] = tested on: HCT-116; assay: Antiproliferative activity against human HCT116 cells
[18] = tested on: HCT-15; assay: Antiproliferative activity against human HCT15 cells
[19] = tested on: HT-29; assay: Antiproliferative activity against human HT-29 cells
[20] = tested on: KM12; assay: Antiproliferative activity against human KM12 cells
[21] = tested on: SW-620; assay: Antiproliferative activity against human SW620 cells
[22] = tested on: LOX IMVI; assay: Antiproliferative activity against human LOXIMVI cells
[23] = tested on: Malme-3M; assay: Antiproliferative activity against human MALME-3M cells
[24] = tested on: M14; assay: Antiproliferative activity against human M14 cells
[25] = tested on: SK-MEL-2; assay: Antiproliferative activity against human SK-MEL-2 cells
[26] = tested on: SK-MEL-28; assay: Antiproliferative activity against human SK-MEL-28 cells
[27] = tested on: SK-MEL-5; assay: Antiproliferative activity against human SK-MEL-5 cells
[28] = tested on: UACC-257; assay: Antiproliferative activity against human UACC257 cells
[29] = tested on: UACC-62; assay: Antiproliferative activity against human UACC62 cells
[30] = tested on: SF-268; assay: Antiproliferative activity against human SF268 cells
[31] = tested on: SF-295; assay: Antiproliferative activity against human SF295 cells
[32] = tested on: SF-539; assay: Antiproliferative activity against human SF539 cells
[33] = tested on: SNB-19; assay: Antiproliferative activity against human SNB19 cells
[34] = tested on: SNB-75; assay: Antiproliferative activity against human SNB75 cells
[35] = tested on: U-251; assay: Antiproliferative activity against human U251 cells
[36] = tested on: IGROV-1; assay: Antiproliferative activity against human IGROV1 cells
[37] = tested on: OVCAR-3; assay: Antiproliferative activity against human OVCAR-3 cells
[38] = tested on: OVCAR-4; assay: Antiproliferative activity against human OVCAR4 cells
[39] = tested on: OVCAR-5; assay: Antiproliferative activity against human OVCAR5 cells
[40] = tested on: OVCAR-8; assay: Antiproliferative activity against human OVCAR8 cells
[41] = tested on: SK-OV-3; assay: Antiproliferative activity against human SKOV3 cells
[42] = tested on: 786-0; assay: Antiproliferative activity against human 786-0 cells
[43] = tested on: A498; assay: Antiproliferative activity against human A498 cells
[44] = tested on: ACHN; assay: Antiproliferative activity against human ACHN cells
[45] = tested on: CAKI-1; assay: Antiproliferative activity against human Caki1 cells
[46] = tested on: RXF 393; assay: Antiproliferative activity against human RXF393 cells
[47] = tested on: SN12C; assay: Antiproliferative activity against human SN12C cells
[48] = tested on: TK-10; assay: Antiproliferative activity against human TK10 cells
[49] = tested on: UO-31; assay: Antiproliferative activity against human UO31 cells
[50] = tested on: BT-549; assay: Antiproliferative activity against human BT549 cells
[51] = Antiproliferative activity against human Hs 578T cells
[52] = tested on: MCF7; assay: Antiproliferative activity against human MCF7 cells
[53] = tested on: MDA-MB-231; assay: Antiproliferative activity against human MDA-MB-231 cells
[54] = tested on: MDA-MB-435; assay: Antiproliferative activity against human MDA-MB-435 cells
[55] = tested on: T47D; assay: Antiproliferative activity against human T47D cells
[56] = tested on: DU-145; assay: Antiproliferative activity against human DU145 cells
[57] = tested on: PC-3; assay: Antiproliferative activity against human PC3 cells
[58] = tested on: SR; assay: Antiproliferative activity against human SR cells

SMILES: CCOC(=O)C[C@H]1[C@@H](O[Si](C)(C)C(C)(C)C)[C@H](n2cnc3c(NC(=O)Nc4ccccc4)ncnc32)O[C@@H]1CNC(=O)NC
- GI50 [1]: 6.69 µM
- GI50 [2]: 0.00301 µM
- GI50 [3]: 3.59 µM
- GI50 [4]: 2.39 µM
- GI50 [5]: 1.09 µM
- GI50 [6]: 4.18 µM
- GI50 [7]: 17.7 µM
- GI50 [8]: 8.96 µM
- GI50 [9]: < 0.01 µM
- GI50 [10]: > 100 µM
- GI50 [11]: 33.3 µM
- GI50 [12]: > 100 µM
- GI50 [13]: 5.54 µM
- GI50 [14]: 4.36 µM
- GI50 [15]: 3.84 µM
- GI50 [16]: > 100 µM
- GI50 [17]: 3.2 µM
- GI50 [18]: 8.5 µM
- GI50 [19]: 4.2 µM
- GI50 [20]: 3.95 µM
- GI50 [21]: 4.8 µM
- GI50 [22]: 5.46 µM
- GI50 [23]: 10.3 µM
- GI50 [24]: 2.51 µM
- GI50 [25]: 5.42 µM
- GI50 [26]: 6.85 µM
- GI50 [27]: 4.34 µM
- GI50 [28]: 5.68 µM
- GI50 [29]: > 100 µM
- GI50 [30]: 6.53 µM
- GI50 [31]: 5.73 µM
- GI50 [32]: 5.19 µM
- GI50 [33]: 29 µM
- GI50 [34]: 4.56 µM
- GI50 [35]: 4.69 µM
- GI50 [36]: 3.85 µM
- GI50 [37]: 4.59 µM
- GI50 [38]: 12.3 µM
- GI50 [39]: 31.1 µM
- GI50 [40]: 4.92 µM
- GI50 [41]: 21 µM
- GI50 [42]: 2 µM
- GI50 [43]: 3.34 µM
- GI50 [44]: 8.55 µM
- GI50 [45]: 29.7 µM
- GI50 [46]: 2.01 µM
- GI50 [47]: 9.1 µM
- GI50 [48]: 12.4 µM
- GI50 [49]: 12.1 µM
- GI50 [50]: > 100 µM
- GI50 [51]: 3.6 µM
- GI50 [52]: 3.42 µM
- GI50 [53]: 3.96 µM
- GI50 [54]: 6.21 µM
- GI50 [55]: 2.55 µM
- GI50 [56]: 4.97 µM
- GI50 [57]: 2.25 µM
- GI50 [58]: 2.23 µM
